Measured values as given in patent US20230250123A1, “GUT MICROBIOTA BIOACTIVATED PDE4 INHIBITOR PRECURSORS” (Giiant Pharma Inc., priority 2020, published 2023).

What was measured:
[1] = In vitro rate of glycoside prodrug hydrolysis in feces supernatant, rat; assay type: in vitro ADME; conditions: 100 µM, 37° C., pH 6.5, 24 hr
Procedure: In vitro rate of glycoside prodrugs hydrolysis. The metabolic stability of prodrug candidates to release the parent PDE4 inhibitor could be assessed in vitro according, but not restricted, to the following protocol: feces were collected overnight on a mixture of dry and wet ice in a metabolic cage. Ten volumes (v/w; 30 mL) of 100 mM phosphate buffer (pH 6.5) were added to 3 g of freshly collected rodent feces. The mixture was homogenized with a Stomacher Circulator 400 (2 × 1 min-cycles at 225 rpm). The mixture was transferred to a 50 mL tubes, centrifuged at 10 000xg for 10 min (4° C.) and the supernatant was passed through a 0.45 µm-filter. In a 96 deep-well plate, 198 µL of feces supernatant were aliquoted in 2 wells per compound. Each compound, including positive control, was tested in duplicate. Then 2 µL of 10 mM stock solution of each test compound were spiked in individual wells (duplicate) at a final concentration of 100 µM and samples were sealed and mixed 30 sec at 1000 rpm using a vortexer. Samples were incubated at 37° C. for the desired time in the Thermomixer with constant agitation (300 rpm). At desired time-point, 25 µL of reaction mixture was added to 225 µL of ice-cold quenching solution (acetonitrile + 0.1% (v/v) formic acid) to stop the bacterial enzymatic activity. The quenched incubates were mixed and centrifuged 10 min at 21 000xg at 4° C. A real t0 (no metabolism, 100% total recovery of unchanged prodrug) was generated by adding 22.5 µL of feces supernatant to 225 µL of ice-cold quenching solution (acetonitrile + 0.1% (v/v) formic acid). Then 2.5 µL of 1 mM solution of each test compounds was added, sealed, mixed thoroughly and centrifuged 10 min at 21 000xg at 4° C. All samples, including analytical standards, were analyzed by LC-MS/MS to measure the concentration of the parent PDE4 inhibitor released and the concentration of the corresponding prodrug remaining. A set criteria of 100% recovery is targeted where the summation of the % of prodrug remaining and the % of parent PDE4 inhibitor released should be 100% with an experimental error tolerance of ± 20%. When prodrugs represented by Formula (I) were incubated 24 hours under the conditions described above using mouse, rat and dog feces, the glycoside prodrugs were hydrolyzed to release the corresponding parent PDE4 inhibitor III (Table 3). As a negative control, when compound 4, 10 and 21 were incubated 24 hours under the conditions described above but in the absence of enzyme activities, using mouse feces extract supernatant inactivated by boiling the supernatant 10 minutes, 100% of the prodrugs were recovered unchanged.

[2] = Bidirectional Caco-2 permeability assay; assay type: in vitro ADME; conditions: human; Caco-2, 10 µM, apical pH 6.0 / basolateral pH 7.4, average of 2 determinations
Procedure: In vitro glycoside prodrug permeability assessment. The permeability of the glycoside prodrugs were measured using the bidirectional Caco-2 assay. Caco-2 cells were seeded onto permeable polycarbonate supports in 12-well Costar Transwell plates and allowed to grow and differentiate for 21-25 days. On day 24, culture medium (DMEM supplemented with 10% FBS, 1% non-essential amino acids and penicillin/streptomycin) was removed from both sides of the transwell inserts and cells were rinsed with warm HBSS. […] The buffer in the donor chamber (apical side for A-to-B assay, basolateral side for B-to-A assay) was removed and replaced with the working solution (10 µM test article in transport buffer). The plates were then placed at 37° C. under light agitation. At designated time points (30, 60 and 90 min); an aliquot of transport buffer from the receiver chamber was removed and replenished with fresh transport buffer. Samples were quenched with ice-cold CH3CN containing internal standard and then centrifuged to precipitate the protein. Resulting supernatants were further diluted with 50/50 ACN/H2O (H2O only for Atenolol) and submitted for LC/MS/MS analysis. […] Atenolol and propranolol were tested as low and […] permeability references. […] The apparent permeability (Papp, measured in cm/s) of a compound is determined according to the following formula: […]
Where dQ/dt is the net rate of appearance in the receiver compartment, A is the area of the Transwell measured in cm^2 (1.12 cm^2), C0 is the initial concentration of compound added to the donor chamber and 60 is the conversion factor for the minute to second.

Row | Structure (SMILES) | Prodrug Remaining @ 24 hr (%) [1] [%] | Papp A→B at 10 µM [2] [×10⁻⁶ cm/s]
1 | OC[C@H]1O[C@@H](Oc2ccc(C[C@@H](c3ccc(OC(F)F)c(OC4CC4)c3)c3cnc(C(O)(C(F)(F)F)C(F)(F)F)s3)cn2)[C@H](O)[C@@H](O)[C@@H]1O [Compound 2, (2S,3R,4S,5S,6R)-2-((5-((S)-2-(3-cyclopropoxy-4-(difluoromethoxy)phenyl)-2-(2-(1,1,1,3,3,3-hexafluoro-2-hydroxypropan-2-yl)thiazol-5-yl)ethyl)pyridin-2-yl)oxy)-6-(hydroxymethyl)tetrahydro-2 H-pyran-3,4,5-triol] | 0.5 | 0.07
2 | CC(=O)OC[C@H]1O[C@@H](Oc2ccc(C[C@H](c3ccc(C(C)(C)O)nc3)c3ccc(OC(F)F)c(OC4CC4)c3)cn2)[C@H](OC(C)=O)[C@@H](OC(C)=O)[C@@H]1OC(C)=O [Compound 3, (2R,3R,4S,5R,6S)-2-(acetoxymethyl)-6-((5-((S)-2-(3-cyclopropoxy-4-(difluoromethoxy)phenyl)-2-(6-(2-hydroxypropan-2-yl)pyridin-3-yl)ethyl)pyridin-2-yl)oxy)tetrahydro-2H-pyran-3,4,5-triyl triacetate] | 0.1 | 1.4
3 | COC(=O)[C@H]1O[C@@H](Oc2ccc(C[C@@H](c3ccc(OC(F)F)c(OC4CC4)c3)c3cnc(C(O)(C(F)(F)F)C(F)(F)F)s3)cn2)[C@H](OC(C)=O)[C@@H](OC(C)=O)[C@@H]1OC(C)=O [Compound 6, (2S,3R,4S,5S,6S)-2-((5-((S)-2-(3-cyclopropoxy-4-(difluoromethoxy)phenyl)-2-(2-(1,1,1,3,3,3-hexafluoro-2-hydroxypropan-2-yl)thiazol-5-yl)ethyl)pyridin-2-yl)oxy)-6-(methoxycarbonyl)tetrahydro-2H-pyran-3,4,5-triyl triacetate] | 23 | 
4 | COC(=O)[C@H]1O[C@@H](Oc2ccc(C[C@@H](c3ccc(OC(F)F)c(OC4CC4)c3)c3cnc(C(O)(C(F)(F)F)C(F)(F)F)s3)cn2)[C@H](O)[C@@H](O)[C@@H]1O [Compound 7, (2S,3S,4S,5R,6S)-methyl 6-((5-((S)-2-(3-cyclopropoxy-4-(difluoromethoxy)phenyl)-2-(2-(1,1,1,3,3,3-hexafluoro-2-hydroxypropan-2-yl)thiazol-5-yl)ethyl)pyridin-2-yl)oxy)-3,4,5-trihydroxytetrahydro-2H-pyran-2-carboxylate] | 35 | 1
5 | COC(=O)[C@H]1O[C@@H](Oc2ccc(C[C@H](c3ccc(C(C)(C)O)nc3)c3ccc(OC(F)F)c(OC4CC4)c3)cn2)[C@H](OC(C)=O)[C@@H](OC(C)=O)[C@@H]1OC(C)=O [Compound 8, (2S,3R,4S,5S,6S)-2-((5-((S)-2-(3-cyclopropoxy-4-(difluoromethoxy)phenyl)-2-(6-(2-hydroxypropan-2-yl)pyridin-3-yl)ethyl)pyridin-2-yl)oxy)-6-(methoxycarbonyl)tetrahydro-2H-pyran-3,4,5-triyl triacetate] |  | 0.6
6 | CNC(=O)[C@H]1O[C@@H](Oc2ccc(C[C@@H](c3ccc(OC(F)F)c(OC4CC4)c3)c3cnc(C(O)(C(F)(F)F)C(F)(F)F)s3)cn2)[C@H](O)[C@@H](O)[C@@H]1O [Compound 15, (2S,3S,4S,5R,6S)-methyl 6-((5-((S)-2-(3-cyclopropoxy-4-(difluoromethoxy)phenyl)-2-(2-(1,1,1,3,3,3-hexafluoro-2-hydroxypropan-2-yl)thiazol-5-yl)ethyl)pyridin-2-yl)oxy)-3,4,5-trihydroxytetrahydro-2H-pyran-2-carboxamide] | 74 | 1.5
7 | CC(=O)OC[C@H]1O[C@@H](Oc2ccc(C[C@H](c3ccc(C(C)(C)O)nc3)c3ccc(OC(F)F)c(OC4CC4)c3)cn2)[C@H](OC(C)=O)[C@@H](OC(C)=O)[C@H]1OC(C)=O [Compound 17, (2R,3S,4S,5R,6S)-2-(acetoxymethyl)-6-((5-((S)-2-(3-cyclopropoxy-4-(difluoromethoxy)phenyl)-2-(6-(2-hydroxypropan-2-yl)pyridin-3-yl)ethyl)pyridin-2-yl)oxy)tetrahydro-2H-pyran-3,4,5-triyl triacetate] | 0.0 | 
8 | CC(C)(O)c1ccc([C@@H](Cc2ccc(O[C@@H]3O[C@H](CO)[C@H](O)[C@H](O)[C@H]3O)nc2)c2ccc(OC(F)F)c(OC3CC3)c2)cn1 [Compound 18, (2S,3R,4S,5R,6R)-2-((5-((S)-2-(3-cyclopropoxy-4-(difluoromethoxy)phenyl)-2-(6-(2-hydroxypropan-2-yl)pyridin-3-yl)ethyl)pyridin-2-yl)oxy)-6-(hydroxymethyl)tetrahydro-2H-pyran-3,4,5-triol] | 0.0 | 0.1
9 | CC(=O)OC[C@H]1O[C@H](Oc2ccc(C[C@H](c3ccc(C(C)(C)O)nc3)c3ccc(OC(F)F)c(OC4CC4)c3)cn2)[C@@H](OC(C)=O)[C@@H](OC(C)=O)[C@@H]1OC(C)=O [Compound 19, (2R,3R,4S,5S,6R)-2-(acetoxymethyl)-6-((5-((S)-2-(3-cyclopropoxy-4-(difluoromethoxy)phenyl)-2-(6-(2-hydroxypropan-2-yl)pyridin-3-yl)ethyl)pyridin-2-yl)oxy)tetrahydro-2H-pyran-3,4,5-triyl triacetate] | 0.7 | 
10 | CC(C)(O)c1ccc([C@@H](Cc2ccc(O[C@H]3O[C@H](CO)[C@@H](O)[C@H](O)[C@@H]3O)nc2)c2ccc(OC(F)F)c(OC3CC3)c2)cn1 [Compound 20, (2R,3S,4S,5S,6R)-2-((5-((S)-2-(3-cyclopropoxy-4-(difluoromethoxy)phenyl)-2-(6-(2-hydroxypropan-2-yl)pyridin-3-yl)ethyl)pyridin-2-yl)oxy)-6-(hydroxymethyl)tetrahydro-2H-pyran-3,4,5-triol] | 0.0 | 0.2
11 | CN(C)[C@H]1[C@H](Oc2ccc(C[C@@H](c3ccc(OC(F)F)c(OC4CC4)c3)c3cnc(C(O)(C(F)(F)F)C(F)(F)F)s3)cn2)O[C@H](CO)[C@@H](O)[C@@H]1O [Compound 27, (2R,3S,4R,5R,6S)-6-((5-((S)-2-(3-cyclopropoxy-4-(difluoromethoxy)phenyl)-2-(2-(1,1,1,3,3,3-hexafluoro-2-hydroxypropan-2-yl)thiazol-5-yl)ethyl)pyridin-2-yl)oxy)-5-(dimethylamino)-2-(hydroxymethyl)tetrahydro-2H-pyran-3,4-diol] | 93 | 2.4
12 | CC(=O)OC[C@H]1O[C@@H](O[C@H]2[C@H](OC(C)=O)[C@@H](OC(C)=O)[C@H](Oc3ccc(C[C@H](c4ccc(C(C)(C)O)nc4)c4ccc(OC(F)F)c(OC5CC5)c4)cn3)O[C@@H]2COC(C)=O)[C@H](OC(C)=O)[C@@H](OC(C)=O)[C@@H]1OC(C)=O [Compound 30, (2R,3R,4S,5R,6S)-2-(acetoxymethyl)-6-(((2R,3R,4S,5R,6S)-4,5-diacetoxy-2-(acetoxymethyl)-6-((5-((S)-2-(3-cyclopropoxy-4-(difluoromethoxy)phenyl)-2-(6-(2-hydroxypropan-2-yl)pyridin-3-yl)ethyl)pyridin-2-yl)oxy)tetrahydro-2H-pyran-3-yl)oxy)tetrahydro-2H-pyran-3,4,5-triyl triacetate] | 10 | 0.5
